These results are taken from EPA's ToxValDB 9.5 (doi:10.2903/j.efsa.2017.4722).

One series concerns Typhlodromus pyri. The experiment in a line: LR50; higher = less toxic. Particulars: acute; mortality.
In a further series the test system is Landoltia sp. The settings on record: chronic/long-term; duration: 14 days; frond number.
For another series, the system named is Anas platyrhynchos. Particulars: acute; oral; unspecified; mortality.
The test system of another series is Apis mellifera. Particulars: acute; oral; unspecified; mortality.
For a further series, the system named is Colinus virginianus. The settings on record: for LD50: acute, oral, mortality.
The next series concerns Canidae. The settings on record: oral, Dog Other.
The test system of a further series is Pimephales promelas. The settings on record: chronic/long-term; duration: 35 days; other.
For the next series, the system named is Neomysis kadiakensis. The settings on record: acute; duration: 96 hours; oral; feed; mortality.
The subject of the next series is Daphnia magna. The settings on record: chronic/long-term; duration: 21 days; reproduction.
A further series relates to Lepomis macrochirus. Particulars: acute; duration: 96 hours; oral; feed; mortality.
A further series concerns Oncorhynchus mykiss. The settings on record: acute; duration: 96 hours; mortality.

Structures are written as SMILES. In brackets after ≈: the same amount, converted by molar mass.

As for `Cc1cc(C)nc(NC(=O)NS(=O)(=O)c2ccccc2C(=O)OC2COC2)n1` [Oxasulfuron], the LR50 with Typhlodromus pyri turned out to be 3.23 g/ha. The NOEC is 0.0002 mg/L in the series with Landoltia sp.; 2 mg/kg with Tagia sp. (chronic/long-term, duration: 56 days, reproduction); 114 mg/L in the series on Pimephales promelas; 14 mg/L in the series with Daphnia magna. Also, the LC50 in the series on Tagia sp. (acute, duration: 14 days, mortality) is over 1000 mg/kg; in the series with Neomysis kadiakensis, 82.6 µg/mL (≈ 203 µM); in the series with Lepomis macrochirus it was over 111 µg/mL. Moreover, the LD50 with Anas platyrhynchos was over 2250 mg/kg-day; in the series with Apis mellifera, over 100 µg/piece; with Colinus virginianus (diet), over 1610 mg/kg-day; in the series with Colinus virginianus, over 2250 mg/kg-day; in the series with Rattus norvegicus (acute, oral, mortality), over 5000 mg/kg-day. The NOEL with Colinus virginianus (reproduction developmental) was determined as 6.91 mg/kg-day. Also, the no observed adverse effect level (NOAEL) with Canidae (chronic, duration: 1 years, neurology) came to 1.3 mg/kg-day; in the series on Canidae (subchronic, duration: 90 days, neurology), 1.3 mg/kg-day; in the series on Rattus norvegicus (chronic, duration: 2 years, histopathology: nonneoplastic), 8.3 mg/kg-day.
Compound `OC1COC1` [Oxetan-3-ol] came in with an LC50 in the series with Oncorhynchus mykiss of over 100 µg/mL. In the series with Canidae (chronic, duration: 16 weeks, hematological), this compound registered an NOAEL of 50 mg/kg-day.

For orientation: NOAEL means the highest dose or exposure tested at which no adverse effect was seen.
